20 compounds from patent publication US20260069571A1, “DDR1 AND DDR2 INHIBITORS FOR THE TREATEMENT OF CANCER AND FIBROTIC DISEASES” (REDX PHARMA PLC, priority 2021, published 2026) can be followed below.

The target in experiment [1] is Recombinant human DDR2 (Homo sapiens (Human), UniProt Q16832). In words: LanthaScreen Eu Kinase Binding Assay, DDR2. Conditions: DDR2 1.75 nM (aa427-855, GST tag), Kinase Tracer 178 10 nM; for IC50: read-out: DDR2 pIC50 (converted). The procedure:
(§1) DDR1 and DDR2 Biochemical Assay Method
(§2) The capacity of compounds to bind to DDR1 and DDR2 was quantified using a LanthaScreen Eu Kinase Binding Assay. Recombinant human DDR1 (2.5 nM; aa440-876 containing a GST tag) and DDR2 (1.75 nM; aa427-855 containing a GST tag) were diluted in assay buffer (50 mM HEPES pH7.3, 10 mM MgCl2, 1 mM EGTA and 0.01% Tween) with various concentrations of compound in a 384-well plate and a volume of 5 uL. After a 30-minute incubation at room temperature, 2.5 uL of Eu-anti GST antibody (diluted to 1 nM in assay buffer) plus Kinase Tracer 178 (diluted in assay buffer to 5 nM for DDR1 and 10 nM for DDR2) were added to the plate. Following 60-minute incubation at room temperature, time-resolved fluorescence was measured on a BMG Labtech PHERAstar plate reader. DMSO (1%) and reference compound (1 μM) were used to generate the Max and Min assay signals, respectively. Data was analysed using a four-parameter logistic model to calculate IC50 values, with at least two independent replicates were performed for each compound.
For orientation: Time-resolved FRET reads energy transfer from a long-lived donor to a nearby acceptor.

Experiment [2] addresses Recombinant human DDR1 (Homo sapiens (Human), UniProt Q08345). In words: LanthaScreen Eu Kinase Binding Assay, DDR1. Conditions: DDR1 2.5 nM (aa440-876, GST tag), Kinase Tracer 178 5 nM; for IC50: read-out: DDR1 pIC50 (converted). The procedure:
as §1, §2

Recombinant human DDR1, sequence (Q08345 other isoform, or with tags, fused parts or gaps): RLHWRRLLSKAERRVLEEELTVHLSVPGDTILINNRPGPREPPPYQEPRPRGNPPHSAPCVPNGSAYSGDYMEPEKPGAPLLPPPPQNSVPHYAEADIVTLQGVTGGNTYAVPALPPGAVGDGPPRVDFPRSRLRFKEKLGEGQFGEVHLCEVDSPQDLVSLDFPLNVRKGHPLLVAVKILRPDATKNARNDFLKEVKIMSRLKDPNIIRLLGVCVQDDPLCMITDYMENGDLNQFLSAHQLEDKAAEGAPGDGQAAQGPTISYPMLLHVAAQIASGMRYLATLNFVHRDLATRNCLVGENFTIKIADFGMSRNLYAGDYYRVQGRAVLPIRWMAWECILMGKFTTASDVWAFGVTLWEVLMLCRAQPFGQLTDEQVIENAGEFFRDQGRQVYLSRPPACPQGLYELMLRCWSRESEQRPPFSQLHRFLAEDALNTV
Recombinant human DDR2, sequence (Q16832 427-855): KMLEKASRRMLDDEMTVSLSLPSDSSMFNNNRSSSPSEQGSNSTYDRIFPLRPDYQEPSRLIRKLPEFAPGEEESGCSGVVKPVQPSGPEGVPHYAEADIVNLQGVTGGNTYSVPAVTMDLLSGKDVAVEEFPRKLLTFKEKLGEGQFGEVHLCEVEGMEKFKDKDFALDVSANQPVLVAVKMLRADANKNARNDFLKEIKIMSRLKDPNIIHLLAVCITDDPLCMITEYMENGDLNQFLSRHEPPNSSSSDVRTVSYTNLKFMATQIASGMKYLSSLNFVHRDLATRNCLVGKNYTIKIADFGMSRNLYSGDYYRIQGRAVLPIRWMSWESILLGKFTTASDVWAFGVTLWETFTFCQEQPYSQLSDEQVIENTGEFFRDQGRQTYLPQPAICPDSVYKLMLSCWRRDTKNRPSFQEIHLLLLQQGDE

Consider `Cc1n[nH]c2cc(Nc3cccc4c3C(=O)N(CC(=O)N3CCC[C@H]3C(F)F)C4)ccc12` [Example 41, 7-[(3-methyl-1H-indazol-6-yl)amino]-2-[2-oxo-2-[(2S)-(difluoromethyl)pyrrolidin-1-yl]ethyl]isoindolin-1-one], for which, in experiment [1], the “DDR2 pIC50” value was “A (pIC50>8)”. Besides, the “DDR1 pIC50” value in experiment [2] is listed as “A (pIC50>8)”.
For `Cc1n[nH]c2cc(Nc3cccc4c3C(=O)N(CC(=O)N3CCCC[C@H]3C(F)(F)F)C4)ccc12` [Example 42, 7-[(3-methyl-1H-indazol-6-yl)amino]-2-[2-oxo-2-[(2S)-(trifluoromethyl)-1-piperidyl]ethyl]isoindolin-1-one], the IC50 in experiment [1] and in experiment [2] was under 10 nM in each case.
`CN(CC(F)(F)F)C(=O)CN1Cc2cccc(Nc3ccc4c(cnn4C)c3)c2C1=O` [Example 43, N-methyl-2-[7-[(1-methylindazol-5-yl)amino]-1-oxo-isoindolin-2-yl]-N-(2,2,2-trifluoroethyl)acetamide]: the IC50 in experiment [1] is 10 to 100 nM. For the same compound, the “DDR1 pIC50” value in experiment [2] is on record as “A (pIC50>8)”.
`Cn1ncc2cc(Nc3cccc4c3C(=O)N(CC(=O)N3CCOC[C@H]3C(F)(F)F)C4)ccc21` [Example 44, 7-[(1-methylindazol-5-yl)amino]-2-[2-oxo-2-[(3S)-(trifluoromethyl)morpholin-4-yl]ethyl]isoindolin-1-one]: the IC50 in experiment [1] was 100 to 1000 nM; in experiment [2] it was 10 to 100 nM.
On the same counts, the results for `Cn1ncc2cc(Nc3cccc4c3C(=O)N(CC(=O)N3CCOC[C@@H]3C(F)(F)F)C4)ccc21` [Example 45, 7-[(1-methylindazol-5-yl)amino]-2-[2-oxo-2-[(3R)-(trifluoromethyl)morpholin-4-yl]ethyl]isoindolin-1-one] are 10 to 100 nM and under 10 nM.
Regarding `Cc1n[nH]c2cc(Nc3cccc4c3C(=O)N(CC(=O)N(C)CC(F)(F)F)C4)ccc12` [Example 46, N-methyl-2-[7-[(3-methyl-1H-indazol-6-yl)amino]-1-oxo-isoindolin-2-yl]-N-(2,2,2-trifluoroethyl)acetamide], the “DDR2 pIC50” value in experiment [1] is reported as “A (pIC50>8)”. Further, the “DDR1 pIC50” value in experiment [2] is “A (pIC50>8)”.
Turning to `Cc1n[nH]c2cc(Nc3cccc4c3C(=O)N(CC(=O)N3CCO[C@@H](C(F)(F)F)C3)C4)ccc12` [Example 47, 7-[(3-methyl-1H-indazol-6-yl)amino]-2-[2-oxo-2-[(2R)-(trifluoromethyl)morpholin-4-yl]ethyl]isoindolin-1-one], the IC50 in experiment [1] is 10 to 100 nM. For the same compound, the “DDR1 pIC50” value in experiment [2] is on record as “A (pIC50>8)”.
For `Cc1n[nH]c2cc(Nc3cccc4c3C(=O)N(CC(=O)N3CCO[C@H](C(F)(F)F)C3)C4)ccc12` [Example 48, 7-[(3-methyl-1H-indazol-6-yl)amino]-2-[2-oxo-2-[(2S)-(trifluoromethyl)morpholin-4-yl]ethyl]isoindolin-1-one], in that order: 10 to 100 nM and “A (pIC50>8)”.
As for `Cn1ncc2cc(Nc3cccc4c3C(=O)N(CC(=O)NC(C)(C)C(F)(F)F)C4)ccc21` [Example 49, 2-[7-[(1-methylindazol-5-yl)amino]-1-oxo-isoindolin-2-yl]-N-(2,2,2-trifluoro-1,1-dimethyl-ethyl)acetamide], the “DDR2 pIC50” value in experiment [1] is “A (pIC50>8)”. Further, the “DDR1 pIC50” value in experiment [2] is reported as “A (pIC50>8)”.
Turning to `Cn1ncc2cc(Nc3cccc4c3C(=O)N(CC(=O)N3CCC3C(F)(F)F)C4)ccc21` (stereo not shown) [Example 50, 7-[(1-methylindazol-5-yl)amino]-2-[2-oxo-2-[2-(trifluoromethyl)azetidin-1-yl]ethyl]isoindolin-1-one], the “DDR2 pIC50” value in experiment [1] is reported as “A (pIC50>8)”. Moreover, in experiment [2], the “DDR1 pIC50” value was “A (pIC50>8)”.
As for `Cn1ncc2cc(Nc3cccc4c3C(=O)N(CC(=O)N3CCC[C@H]3C(F)(F)F)C4)cnc21` [Example 51, 7-[(1-methylpyrazolo[3,4-b]pyridin-5-yl)amino]-2-[2-oxo-2-[(2S)-2-(trifluoromethyl)pyrrolidin-1-yl]ethyl]isoindolin-1-one], the “DDR2 pIC50” value in experiment [1] is “A (pIC50>8)”. For the same compound, in experiment [2], the “DDR1 pIC50” value is on record as “A (pIC50>8)”.
For the compound `Cn1ncc2cc(Nc3cccc4c3C(=O)N(CC(=O)NC3CC3(F)F)C4)cnc21` (stereo not shown) [Example 52, N-(2,2-difluorocyclopropyl)-2-[7-[(1-methylpyrazolo[3,4-b]pyridin-5-yl)amino]-1-oxo-isoindolin-2-yl]acetamide], the IC50 in experiment [1] is 100 to 1000 nM; in experiment [2], 10 to 100 nM.
As for `C[C@H](NC(=O)CN1Cc2cccc(Nc3cnc4c(cnn4C)c3)c2C1=O)C(F)(F)F` [Example 53, 2-[7-[(1-methylpyrazolo[3,4-b]pyridin-5-yl)amino]-1-oxo-isoindolin-2-yl]-N-[(1S)-2,2,2-trifluoro-1-methyl-ethyl]acetamide], the IC50 in experiment [1] is 10 to 100 nM. Besides, the “DDR1 pIC50” value in experiment [2] was “A (pIC50>8)”.
Consider `Cn1ncc2cc(Nc3cccc4c3C(=O)N(CC(=O)N3CCO[C@H](C(F)(F)F)C3)C4)cnc21` [Example 54, 7-[(1-methylpyrazolo[3,4-b]pyridin-5-yl)amino]-2-[2-oxo-2-[(2S)-(trifluoromethyl)morpholin-4-yl]ethyl]isoindolin-1-one], for which the IC50 in experiment [1] and in experiment [2] was 100 to 1000 nM each time.
`Cn1ncc2cc(Nc3cccc4c3C(=O)N(CC(=O)N3CCO[C@@H](C(F)(F)F)C3)C4)cnc21` [Example 55, 7-[(1-methylpyrazolo[3,4-b]pyridin-5-yl)amino]-2-[2-oxo-2-[(2R)-(trifluoromethyl)morpholin-4-yl]ethyl]isoindolin-1-one]: the IC50 in experiment [1] and in experiment [2] was 100 to 1000 nM throughout.
`Cn1ncc2cc(Nc3cccc4c3C(=O)N(CC(=O)N3CCC[C@H]3CF)C4)cnc21` [Example 56, 7-[(1-methylpyrazolo[3,4-b]pyridin-5-yl)amino]-2-[2-oxo-2-[(2S)-(fluoromethyl)pyrrolidin-1-yl]ethyl]isoindolin-1-one]: the IC50 in experiment [1] and in experiment [2] was 10 to 100 nM throughout.
In the case of `Cn1ncc2cc(Nc3cccc4c3C(=O)N(CC(=O)N3CCOC[C@@H]3C(F)(F)F)C4)cnc21` [Example 57, 7-[(1-methylpyrazolo[3,4-b]pyridin-5-yl)amino]-2-[2-oxo-2-[(3R)-(trifluoromethyl)morpholin-4-yl]ethyl]isoindolin-1-one], the IC50 in experiment [1] and in experiment [2] was at least 1000 nM throughout.
As for `Cn1ncc2cc(Nc3cccc4c3C(=O)N(CC(=O)N3CCC[C@H]3C(F)F)C4)cnc21` [Example 58, 7-[(1-methylpyrazolo[3,4-b]pyridin-5-yl)amino]-2-[2-oxo-2-[(2S)-(difluoromethyl)pyrrolidin-1-yl]ethyl]isoindolin-1-one], the IC50 in experiment [1] was 10 to 100 nM. In addition, the “DDR1 pIC50” value in experiment [2] is “A (pIC50>8)”.
Regarding `Cn1ncc2cc(Nc3cccc4c3C(=O)N(CC(=O)Nc3cccc(C(F)(F)F)c3)C4)cnc21` [Example 59, 2-[7-[(1-methylpyrazolo[3,4-b]pyridin-5-yl)amino]-1-oxo-isoindolin-2-yl]-N-[3-(trifluoromethyl)phenyl]acetamide], the results for the IC50 in experiment [1] and in experiment [2] were 100 to 1000 nM and 10 to 100 nM, respectively.
For the compound `N#Cc1cc(Nc2cccc3c2C(=O)N(CC(=O)NCC(F)(F)F)C3)cc2cn[nH]c12` [Example 60, 2-[7-[(7-cyano-1H-indazol-5-yl)amino]-1-oxo-isoindolin-2-yl]-N-(2,2,2-trifluoroethyl)acetamide], the “DDR2 pIC50” value in experiment [1] is reported as “A (pIC50>8)”. The “DDR1 pIC50” value in experiment [2] was “A (pIC50>8)”.
